In US20070026071A1, “Magnesium salt proton pump inhibitor dosage forms” (QPharma, LLC, priority 2005, published 2007):
Read-outs that look alike come from different tables or passages of the source.

How the values were obtained:
[1] = from commercially marketed dosage forms; cited from earlier work
[2] = Phase solubility study in pH 6.8 buffer (simulated intestinal fluid) and purified water; type: physicochemical; conditions: for Solubility: Active content equivalent to base in pH 6.8 buffer / Solubility: Active content equivalent to base in purified water: ambient temperature (approx. 22° C.), shaken approx. 30 minutes
Description: In this study the solubility of Omeprazole Magnesium Trihydrate and Esomeprazole Magnesium Dihydrate active materials in pH 6.8 buffer and purified water was performed. […] A pH 6.8 buffer is prepared as described under the monograph of Omeprazole Delayed Release capsules for dissolution test in United States Pharmacopoeia. Purified water and pH 6.8 buffer were used at ambient temperature (approx. 22° C.).
Samples of actives and tablet dosage form powders were used in the study. Each sample contains approx. 200 mg base equivalent Omeprazole and Esomeprazole as salts and such samples were transferred in to a centrifuge tube containing 20 mL of appropriate medium. Centrifuge tubes containing these suspensions were shaken for approx. 30 minutes on a wrist action shaker and samples were initially filtered through Whatman filter paper and subsequently filtered through 0.45 micron PTFE cartridge filters. The samples were further diluted by pipetting 1.0 mL in to 100 mL volumetric flasks and made up to the volume with appropriate medium. The optical density values were measured using a suitable UV-Visible spectrophotometer at 275 nm wavelength.

[3] = 25° C., cited from earlier work

| Compound | percent bioavailability [1] | Solubility: Active content equivalent to base in pH 6.8 buffer [2] | fold increased solubility by the fluid bed process as compared to the active when tested alone ([2]; purified water) | Solubility: Active content equivalent to base in purified water ([2]; purified water) | further results |
| --- | --- | --- | --- | --- | --- |
| COCCCOc1ccnc(C[S+]([O-])c2nc3ccccc3[nH]2)c1C (stereo not shown) [Rabeprazole] | 52% | – | – | – | – |
| COc1ccc2[n-]c([S+]([O-])Cc3ncc(C)c(OC)c3C)nc2c1.COc1ccc2[n-]c([S+]([O-])Cc3ncc(C)c(OC)c3C)nc2c1.O.O.O.[Mg+2] (stereo not shown) [Omeprazole Magnesium Trihydrate] | – | 0.31 mg/mL | approx. 10 fold | 260 µg/mL | fold increased solubility by the fluid bed process as compared to the active when tested alone ([2]; pH 6.8 buffer (simulated intestinal fluid)): 4 fold |
| COc1ccc2[n-]c([S@@+]([O-])Cc3ncc(C)c(OC)c3C)nc2c1.COc1ccc2[n-]c([S@@+]([O-])Cc3ncc(C)c(OC)c3C)nc2c1.O.O.[Mg+2] [Esomeprazole Magnesium Dihydrate] | – | 1.17 mg/mL | approx. 1.6 fold | 5020 µg/mL | – |
| COc1ccnc(C[S+]([O-])c2nc3ccc(OC(F)F)cc3[nH]2)c1OC (stereo not shown) [Pantoprazole] | 77% | – | – | – | – |
| Cc1c(OCC(F)(F)F)ccnc1C[S+]([O-])c1nc2ccccc2[nH]1 (stereo not shown) [Lansoprazole, 2-[[[3-methyl-4-(2,2,2-trifluroethoxy)-2-pyridyl]methyl]sulfinyl]benzimidazole] | 80-85% | – | – | – | degradation half-life in aqueous solution ([3]; pH 5.0): approximately 0.5 hour; degradation half-life in aqueous solution ([3]; pH 7.0): approximately 18 hours |
| COc1ccc2[nH]c([S+]([O-])Cc3ncc(C)c(OC)c3C)nc2c1 (stereo not shown) [omeprazole, 2-[2-(3,5-dimethyl-4-methoxy)-pyridylmethylsulfinyl]-(5-methoxy)-benzimidazole] | 30-40% | – | – | – | – |
